Type in all cases: biochemical
Experiment [1] has as its target Pseudomonas aeruginosa BBE lipoxygenase (LOX, EC 1.13.11.12), wild-type, gene SEQ ID NO.6 (Pseudomonas aeruginosa, UniProt Q9I4G8). Put plainly: Lipoxygenase kinetics with linoleic acid, wild-type LOX. The note with it: pH 7.5, 25° C., Value ± SD. The source says: (§1) The nucleotide sequence of PGL gene from Bacillus subtilis WSHB04-02 is shown as SEQ ID NO.4. The nucleotide sequence of LOX gene from Pseudomonas aeruginosa BBE is shown as SEQ ID NO.6. The nucleotide sequence of GFP gene from Aequorea victoria is shown as SEQ ID NO.8. E. coli JM109 was used as the host strain for cloning. E. coli BL21 (DE3) and E. coli Rosetta (DE3) were used as the expression hosts. The pET-22b (+) plasmid was used for expressing the recombinant proteins.
(§2) Linoleic acid was dispersed in 0.15 M K2HPO4—KH2PO4 buffer (pH 7.5). The substrate solution was freshly prepared daily and saturated with oxygen for 5 min before testing. Standard analytical mixture (3 mL) contains 0.3 mM linoleic acid and about 1.67 μg/mL enzyme. One unit of activity was defined as enzyme required to synthesis 1 μmol hydroperoxide per min at 25° C. Hydroperoxidaton was determined at 234 nm in a spectrophotometer (UV-2450; Shimadzu Co., Kyoto, Japan). The initial linear part of the wave was used to calculate enzyme activity.

For experiment [2], the target named is Pseudomonas aeruginosa BBE lipoxygenase LOX-His (His-tag HHHHHH fusion), gene SEQ ID NO.6 (Pseudomonas aeruginosa, UniProt Q9I4G8). As to the kind of experiment: Lipoxygenase kinetics with linoleic acid, LOX-His. The note with it: pH 7.5, 25° C., Value ± SD.
Sequence of Pseudomonas aeruginosa BBE lipoxygenase LOX-His (His-tag HHHHHH fusion), gene SEQ ID NO.6 (Q9I4G8 19-685, looked up, natural form): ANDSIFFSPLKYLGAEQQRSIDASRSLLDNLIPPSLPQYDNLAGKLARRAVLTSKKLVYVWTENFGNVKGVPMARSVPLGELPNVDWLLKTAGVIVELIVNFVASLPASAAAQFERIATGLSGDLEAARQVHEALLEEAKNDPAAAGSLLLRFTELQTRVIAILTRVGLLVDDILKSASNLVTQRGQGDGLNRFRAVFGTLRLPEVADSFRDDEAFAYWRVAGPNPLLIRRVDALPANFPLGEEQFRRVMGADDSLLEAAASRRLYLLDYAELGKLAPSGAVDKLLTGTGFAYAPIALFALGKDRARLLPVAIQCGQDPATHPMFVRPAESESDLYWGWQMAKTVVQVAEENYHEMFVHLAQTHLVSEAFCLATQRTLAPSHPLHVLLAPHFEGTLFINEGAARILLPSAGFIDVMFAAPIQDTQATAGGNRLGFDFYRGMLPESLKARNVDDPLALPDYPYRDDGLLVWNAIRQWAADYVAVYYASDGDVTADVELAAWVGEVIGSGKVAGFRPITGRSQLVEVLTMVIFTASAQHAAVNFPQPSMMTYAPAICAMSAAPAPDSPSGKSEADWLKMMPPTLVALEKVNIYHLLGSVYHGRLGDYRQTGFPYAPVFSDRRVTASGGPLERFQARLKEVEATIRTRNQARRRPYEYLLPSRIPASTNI
Description: (§3) FIG. 1. (A) Genetic constructs of the His-tag fusion proteins; (B) Genetic constructs of the S1v1 fusion proteins. S1v1, AEAEAHAHAEAEAHAH; linker, PTPPTTPTPPTTPTPT; His-tag, HHHHHH; Enzymes represented the encoding gene of three proteins (pgl, lox and gfp, respectively) used in this study.
as §1, §2

Experiment [3] concerns the target Pseudomonas aeruginosa BBE lipoxygenase LOX-S1v1 (fused to self-assembling amphipathic peptide S1v1, […], SEQ ID NO.1), LOX gene SEQ ID NO.6 (Pseudomonas aeruginosa, UniProt Q9I4G8). Put plainly: Lipoxygenase kinetics with linoleic acid, LOX-S1v1.
Description: as §3, §1, §2
(2) The LOX gene (shown in SEQ ID NO. 6) was cloned into the recombinant vector pET-22b(+)/S1v1 at the restriction NcoI and XhoI sites to construct a recombinant plasmid pET-22b(+)/lox-S1v1.

Where [4] appears, read: increase of LOX-S1v1 than that of the wild-type LOX.
The mark [5] stands for this setting: linoleic acid, LOX-S1v1, pH 7.5, 25° C., Value ± SD.

Sequence of Pseudomonas aeruginosa BBE lipoxygenase LOX-S1v1 (fused to self-assembling amphipathic peptide S1v1, […], SEQ ID NO.1), LOX gene SEQ ID NO.6 (Q9I4G8 20-685, added parts left off): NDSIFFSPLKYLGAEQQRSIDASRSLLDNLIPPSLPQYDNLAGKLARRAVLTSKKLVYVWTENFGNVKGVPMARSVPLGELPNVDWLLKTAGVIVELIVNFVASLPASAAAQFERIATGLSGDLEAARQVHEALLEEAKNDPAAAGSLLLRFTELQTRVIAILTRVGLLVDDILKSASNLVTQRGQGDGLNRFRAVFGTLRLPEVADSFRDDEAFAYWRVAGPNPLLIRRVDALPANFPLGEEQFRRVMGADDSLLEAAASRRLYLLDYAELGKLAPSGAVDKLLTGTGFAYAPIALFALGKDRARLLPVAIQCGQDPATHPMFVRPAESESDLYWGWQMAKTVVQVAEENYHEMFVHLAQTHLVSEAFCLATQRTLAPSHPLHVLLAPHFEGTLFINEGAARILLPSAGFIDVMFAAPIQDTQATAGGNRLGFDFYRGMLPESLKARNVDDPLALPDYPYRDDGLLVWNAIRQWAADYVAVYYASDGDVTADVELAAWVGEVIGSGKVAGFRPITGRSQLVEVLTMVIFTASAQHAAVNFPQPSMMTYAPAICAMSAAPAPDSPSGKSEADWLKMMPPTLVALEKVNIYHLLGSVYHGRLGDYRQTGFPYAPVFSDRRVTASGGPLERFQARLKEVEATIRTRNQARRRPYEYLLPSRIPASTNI
Sequence of Pseudomonas aeruginosa BBE lipoxygenase (LOX, EC 1.13.11.12), wild-type, gene SEQ ID NO.6 (Q9I4G8 19-685, looked up, natural form): as the sequence (Q9I4G8 19-685, looked up, natural form) above

For orientation: Km means the concentration of substrate that gives half-maximal velocity. As for `CCCCC/C=C\C/C=C\CCCCCCCC(=O)O` [linoleic acid, Linoleic acid], the results for the Michaelis constant (Km) in experiment [1], in experiment [2] and in experiment [3] (setting [5]) were 57 ± 1.2 µM, 55 ± 2 µM and 83 ± 2 µM, respectively. Also, the kcat in experiment [1] is given as 24.77 ± 0.97 S^−1; in experiment [2] it was 25.21 ± 1.02 S^−1; in experiment [3] (setting [5]), 83.2 ± 3.25 S^−1. Further, in experiment [3] (fusion enzymes compared with wild-types, decrease in substrate affinity after S1v1 peptide fusion), the “Km value (in words)” value is given as “higher Km value”. Besides, in experiment [3] (setting [4]), the “catalytic efficiencies (kcat/Km) increase” value was determined as 1.3 fold. In experiment [3] (setting [4]), the kcat value increase is on record as 2.4 fold.

(Values after patent US10273266B2, “Multi-functional peptide benefiting expression, purification, stabilization and catalytic efficiency of recombinant proteins” (priority 2017, dated 2019).)
